{"source": "paper PMC8373237", "about": "(Antimicrobial Agents and Chemotherapy, 2021)", "key": {"[1]": {"tested_on": "Salmonella flagellar T3SS (FliC, FliD secretion)", "format": "cell-based, Salmonella enterica Typhimurium", "design": "key to Fla fliC (Table 2): NE: No effect observed"}, "P. aeruginosa (PAO1)": {"tested_on": "P. aeruginosa (PAO1)", "format": "cell-based, Pseudomonas aeruginosa"}, "Kinetic solubility": {"assay": "Kinetic solubility", "format": "physicochemical", "description": "[…] Then, […] of 15 mM stock compound was added to make a solution of 120 μM final concentration with 0.8% DMSO. The solution was shaken at 37°C for ∼2 h. The solution was passed over a 0.7- μM glass fiber filter. Then, the solution was diluted 1:4 in acetonitrile to crash out any proteins. The solution was centrifuged at 500 × g for 10 min. Avoiding the pellet, 10 μl of supernatant was added to a fresh plate with 90 μl of acetonitrile. The final dilution is 40 times lower. Next, 10 μl of 40× dilution of solution was injected on the Orbi-trap. A 1 μM standard was used for the ratiometric comparison, and the assay was done in triplicate."}, "[2]": {"tested_on": "Salmonella enterica Typhimurium SPI-1 T3SS (SipA, SipC secretion)", "format": "cell-based"}, "[3]": {"tested_on": "Y. enterocolitica Ysa T3SS (YspF secretion)", "format": "cell-based, Yersinia enterocolitica"}, "[4]": {"tested_on": "P. aeruginosa PA103 T3SS (ExoU secretion)", "format": "cell-based, Pseudomonas aeruginosa"}, "[5]": {"tested_on": "C. trachomatis serovar L2 in HeLa cells", "assay": "Chlamydia infection of HeLa cells (primary and secondary infection)", "format": "cell-based, Chlamydia trachomatis", "design": "key to lowest known inhibitory concentration (∼), cell-based infection assay, Chlamydia: NE: No effect observed", "description": "Primary infections. HeLa cell monolayers were infected with C. trachomatis serovar L2 at a multiplicity of infection (MOI) of 1.0 in the presence of one of the following compounds at 9 μM: DMSO, 4EpDN, or 4EpDN 2Sar. Cells were incubated for 24 h in the presence of the above-listed compounds at 37°C and then fixed with 4% paraformaldehyde (PFA). Cells were stained for IncA (Chlamydia inclusion membrane marker), DNA (with DAPI), and MOMP (Chlamydia major outer membrane protein) simultaneously. This method of staining allows visualization of the inclusion independent of MOMP synthesis or transport. The percentage of cells infected (i.e., stained positively for the listed Chlamydia markers) in the presence of the compounds was quantified using confocal microscopy. Quantifications of inclusion take into account both DAPI staining and indirect immunofluoresence with an antibody to MOMP. Ten randomly selected fields of view were measured per experiment. The data represent three biological replicates.\nSecondary infections. HeLa cell monolayers were infected with C. trachomatis serovar L2 at an MOI of 1.0 in the presence of one of the following compounds at 9 μM: DMSO, 4EpDN, or 4EpDN 2Sar. Cells were incubated for 48 h in the presence of the above-listed compounds at 37°C. Infected cells were then lysed, and the lysate was applied to fresh HeLa monolayers to enumerate infectious particles. These secondary infections were fixed in 4% PFA at 24 hpi and were stained against MOMP and DNA. The infectious units per ml (IFU/ml) were calculated by averaging the number of infected cells in each of 10 randomly selected fields of view at ×40 magnification on a confocal microscope and multiplying this by the appropriate dilution and area factors. The data represent four biological replicates."}, "Y. pseudotuberculosis": {"tested_on": "Y. pseudotuberculosis", "format": "cell-based, Yersinia pseudotuberculosis", "conditions": "2xYT, 9-120 µM, 12 h"}, "Ssa-Esc T3SS, EPEC/EHEC [6]": {"tested_on": "Ssa-Esc T3SS, EPEC/EHEC", "conditions": "culture-based secretion assay, cited from earlier work"}, "[7]": {"tested_on": "Salmonella enterica Typhimurium SPI-1 T3SS", "conditions": "cited from earlier work"}, "[8]": {"tested_on": "Salmonella enterica Typhimurium SPI-1 T3SS", "conditions": "culture-based secretion assay; ref [87]; cited from earlier work"}, "[9]": {"tested_on": "Yersinia pseudotuberculosis Ysc T3SS", "conditions": "culture-based secretion assay; ref [87]; cited from earlier work"}, "Ssa-Esc T3SS, EPEC/EHEC [10]": {"tested_on": "Ssa-Esc T3SS, EPEC/EHEC", "design": "method as in PMID 33316970", "conditions": "translocation assay; ref [109]; read-out: IC50, EspF translocation; cited from earlier work"}, "[11]": {"tested_on": "Yersinia pseudotuberculosis Ysc T3SS", "conditions": "cited from earlier work"}, "[12]": {"tested_on": "Chlamydiales T3SS, Chlamydia", "conditions": "cell-based infection assay, ref [67], cited from earlier work"}, "[13]": {"tested_on": "Pseudomonas aeruginosa Psc T3SS", "conditions": "cell-based infection assay, ref [67], cited from earlier work"}, "Ssa-Esc T3SS, EPEC/EHEC [14]": {"tested_on": "Ssa-Esc T3SS, EPEC/EHEC", "conditions": "biochemical assay, cited from earlier work"}, "[15]": {"tested_on": "Yersinia pseudotuberculosis Ysc T3SS", "conditions": "cited from earlier work", "remark": "listed apart in the source"}, "[16]": {"tested_on": "Salmonella enterica Typhimurium SPI-1 T3SS", "conditions": "translocation assay, cited from earlier work"}}, "note": "Read-outs that look alike come from different tables or passages of the source. Marks after values point to notes of the source that are not given here. Square brackets hold non-standard residues; d marks the D form. Peptide text beside a SMILES is read from it. NPrGly = CCCNCC(=O)O; Sar = CNCC(=O)O"}
{"compound": "CCCN1CC(=O)N(C)CC(=O)N[C@@H](CC(C)C)C(=O)N[C@@H]([C@@H](C)CC)C(=O)N[C@H](CC(C)C)C(=O)N[C@H](Cc2ccccc2)C1=O", "note": "[4EpDN 2Sar, 4-EpD1,2N 2Sar] (cyclo(I[dL][dF][NPrGly][Sar]L))", "values": [{"measurement": "Fla fliC (Table 2)", "setting": "[1]", "result": "NE^d"}, {"measurement": "effect on FliC secretion, in words", "setting": "[1]", "result": "no significant effect"}, {"measurement": "effect on FliD secretion, in words", "setting": "[1]", "result": "no significant effect"}, {"measurement": "bacterial viability in broth culture", "setting": "P. aeruginosa (PAO1)", "result": "did not affect bacterial viability"}, {"measurement": "solubility", "setting": "Kinetic solubility; DMEM (no antibiotics)", "result": 61, "unit": "µM"}, {"measurement": "solubility", "setting": "Kinetic solubility; M9", "result": 61, "unit": "µM"}, {"measurement": "concentrations at which inhibition of SipC and SipA secretion was seen", "setting": "[2]", "result": "greater than 30 μM"}, {"measurement": "lowest known inhibitory concentration (∼), SipAC secretion", "setting": "[2]", "result": "∼30 SipAC^b μM"}, {"measurement": "secretion of YspF, in words", "setting": "[3]", "result": "did not affect its secretion"}, {"measurement": "T3SS inhibitory activity (ExoU secretion), in words", "setting": "[4]", "result": "significantly reduced activity"}, {"measurement": "inhibition of ExoU secretion", "setting": "[4]; 9 µM", "result": "no effect"}, {"measurement": "inhibition of ExoU secretion", "setting": "[4]; 60 µM", "result": "no effect"}, {"measurement": "IC50", "setting": "[4]; read-out: IC50 (Table S1)", "result": "~140", "unit": "µM"}, {"measurement": "IC50", "setting": "[4]; read-out: IC50, inhibition of secretion of T3SS effector ExoU", "result": 140, "unit": "µM"}, {"measurement": "inhibition of formation of infectious progeny", "setting": "[5]; 9 μM, EBs collected at 48 hpi, fresh monolayers 24 h", "result": "not"}, {"measurement": "decrease of primary inclusion formation", "setting": "[5]; 9 μM, HeLa cells, 24 hpi", "result": "not"}, {"measurement": "lowest known inhibitory concentration (∼), cell-based infection assay, Chlamydia", "setting": "[5]; Table 2, Chlamydiales", "result": "NE^d"}, {"measurement": "bacterial viability in broth culture", "setting": "Y. pseudotuberculosis", "result": "did not affect bacterial viability"}]}
{"compound": "C/C=C\\C=C\\[C@@H]1O[C@](O)([C@H](CC)C(=O)NC/C=C/C=C(\\C)[C@@H](OC)[C@@H](C)[C@@H]2O[C@H](/C=C/C=C/C=C(\\C)C(=O)c3c(O)ccn(C)c3=O)[C@H](O)[C@@H]2O)[C@H](O)[C@H](O)C1(C)C", "note": "[Aurodox]", "values": [{"measurement": "IC50, EspABCD secretion", "setting": "Ssa-Esc T3SS, EPEC/EHEC [6]; ref [103]", "result": 0.5, "unit": "μg/ml EspABCD^b"}]}
{"compound": "O=C/C=C/c1ccccc1", "note": "[Cinnamaldehyde]", "values": [{"measurement": "lowest known inhibitory concentration (∼), SPI-1, SipAB", "setting": "[7]; footnotes c and e: cell-based infection assay, SipAB biochemical assay, ref [106]", "result": "∼100^c SipAB^e μM"}]}
{"compound": "O=C(O[C@@H]1Cc2c(O)cc(O)cc2O[C@@H]1c1cc(O)c(O)c(O)c1)c1cc(O)c(O)c(O)c1", "note": "[Epigallocatechin gallate]", "values": [{"measurement": "lowest known inhibitory concentration (∼), Sips secretion", "setting": "[8]", "result": "∼12μg/ml Sips^b"}, {"measurement": "lowest known inhibitory concentration (∼), EspB secretion", "setting": "Ssa-Esc T3SS, EPEC/EHEC [6]; ref [87]", "result": "∼16 μg/ml EspB^b"}, {"measurement": "lowest known inhibitory concentration (∼), Yops secretion", "setting": "[9]", "result": "∼16 μg/ml Yops^b"}, {"measurement": "IC50", "setting": "Ssa-Esc T3SS, EPEC/EHEC [10]", "result": 1.8, "unit": "µM"}]}
{"compound": "O=[N+]([O-])c1cc(CN2CCN(c3ccccc3)CC2)c(O)c2ncccc12", "note": "[INP1750]", "values": [{"measurement": "EC50", "setting": "[11]", "result": 12.4, "unit": "µM"}, {"measurement": "MIC, Chlamydia", "setting": "[12]; [68]", "result": 25, "unit": "MIC^c μM"}, {"measurement": "lowest known inhibitory concentration (∼), PA", "setting": "[13]; [68]", "result": "∼80^c μM"}]}
{"compound": "O=[N+]([O-])c1cc(CN2CCN(c3ccc(F)cc3)CC2)c(O)c2ncccc12", "note": "[INP1855]", "values": [{"measurement": "EC50", "setting": "[11]", "result": 6.3, "unit": "µM"}, {"measurement": "MIC, Chlamydia", "setting": "[12]; [69]", "result": 3.13, "unit": "MIC^c μM"}, {"measurement": "lowest known inhibitory concentration (∼), PA", "setting": "[13]; [69]", "result": "∼60^c μM"}]}
{"compound": "O=C(N/N=C/c1ccc(O)cc1O)c1ccc([N+](=O)[O-])cc1", "note": "[ME0055]", "values": [{"measurement": "lowest known inhibitory concentration (∼), LEE genes", "setting": "Ssa-Esc T3SS, EPEC/EHEC [14]; ref [76]", "result": "∼20 LEE genes^e μM"}]}
{"compound": "C/C=C(\\C)C(O)C(C)/C=C(C)/C=C/C/C(C)=C/Cc1[nH]c(OC)cc(=O)c1C", "note": "(centres unmarked) [Mer-A 2026B]", "values": [{"measurement": "lowest known inhibitory concentration (∼), YopM translocation", "setting": "[15]", "result": "∼36; ∼9 YopM^f μM"}]}
{"compound": "O=c1c(O)c(-c2cc(O)c(O)c(O)c2)oc2cc(O)cc(O)c12", "note": "[Myricetin]", "values": [{"measurement": "lowest known inhibitory concentration (∼), SipA/B translocation", "setting": "[16]; ref [107]", "result": "∼4 μg/ml SipA/B^f"}]}
{"compound": "C=CCc1ccc(Oc2cc(CC=C)cc(O)c2O)cc1", "note": "[Obovatol]", "values": [{"measurement": "IC50", "setting": "[7]; cell-based infection assay, ref [89]", "result": 19.8, "unit": "µM"}]}
{"compound": "C/C=C(\\C)[C@H](O)[C@H](C)/C=C(C)/C=C/C/C(C)=C/Cc1nc(OC)c(OC)c(O)c1C", "note": "[Piercidin A1]", "values": [{"measurement": "lowest known inhibitory concentration (∼), YopM translocation", "setting": "[15]", "result": "∼36; ∼9 YopM^f μM"}]}
{"compound": "COCCn1c2c([n+](Cc3cnccn3)c1C)C(=O)c1ccccc1C2=O", "note": "[Sepantronium bromide (YM155), Sepantronium bromide]", "values": [{"measurement": "lowest known inhibitory concentration (∼), SseK1/SseK2, NleB", "setting": "Ssa-Esc T3SS, EPEC/EHEC [14]; ref [110]", "result": "∼2 SseK1/SseK2^e, NleB^e μM"}]}
{"compound": "Cc1ccc(C(C)C)c(O)c1", "note": "[Thymol]", "values": [{"measurement": "lowest known inhibitory concentration (∼), SipA translocation", "setting": "[16]; ref [90]", "result": "∼0.2 mM SipA^f"}]}
{"compound": "Tannic acid", "values": [{"measurement": "IC50", "setting": "Ssa-Esc T3SS, EPEC/EHEC [10]", "result": 0.65, "unit": "µM"}]}
